According to ChEMBL document CHEMBL5532657, “Serendipitous discovery of Class I HDAC inhibitors from rational design of molecular glue degraders targeting HDAC” (Eur J Med Chem, 2024):
The source made the active and inactive calls.

Key:
HCT-116 = assay: Antiproliferative activity against human HCT-116 cells assessed as cell growth inhibition at 5 uM incubated for 48 hrs by CCK-8 assay; type: functional, cell-based
A549 = assay: Antiproliferative activity against human A549 cells assessed as cell growth inhibition at 5 uM incubated for 48 hrs by CCK-8 assay; type: functional, cell-based
[1] = biological target: T1, Protein deacetylase HDAC6 (Homo sapiens) (UniProt Q9UBN7); assay: Induction of HDAC6 degradation in human RS4-11 cells at 0.5 to 10 uM incubated for 12 hrs by Western blotting analysis; type: cell-based; settings: dose 0.5-10 µM
T1 sequence (whole entry): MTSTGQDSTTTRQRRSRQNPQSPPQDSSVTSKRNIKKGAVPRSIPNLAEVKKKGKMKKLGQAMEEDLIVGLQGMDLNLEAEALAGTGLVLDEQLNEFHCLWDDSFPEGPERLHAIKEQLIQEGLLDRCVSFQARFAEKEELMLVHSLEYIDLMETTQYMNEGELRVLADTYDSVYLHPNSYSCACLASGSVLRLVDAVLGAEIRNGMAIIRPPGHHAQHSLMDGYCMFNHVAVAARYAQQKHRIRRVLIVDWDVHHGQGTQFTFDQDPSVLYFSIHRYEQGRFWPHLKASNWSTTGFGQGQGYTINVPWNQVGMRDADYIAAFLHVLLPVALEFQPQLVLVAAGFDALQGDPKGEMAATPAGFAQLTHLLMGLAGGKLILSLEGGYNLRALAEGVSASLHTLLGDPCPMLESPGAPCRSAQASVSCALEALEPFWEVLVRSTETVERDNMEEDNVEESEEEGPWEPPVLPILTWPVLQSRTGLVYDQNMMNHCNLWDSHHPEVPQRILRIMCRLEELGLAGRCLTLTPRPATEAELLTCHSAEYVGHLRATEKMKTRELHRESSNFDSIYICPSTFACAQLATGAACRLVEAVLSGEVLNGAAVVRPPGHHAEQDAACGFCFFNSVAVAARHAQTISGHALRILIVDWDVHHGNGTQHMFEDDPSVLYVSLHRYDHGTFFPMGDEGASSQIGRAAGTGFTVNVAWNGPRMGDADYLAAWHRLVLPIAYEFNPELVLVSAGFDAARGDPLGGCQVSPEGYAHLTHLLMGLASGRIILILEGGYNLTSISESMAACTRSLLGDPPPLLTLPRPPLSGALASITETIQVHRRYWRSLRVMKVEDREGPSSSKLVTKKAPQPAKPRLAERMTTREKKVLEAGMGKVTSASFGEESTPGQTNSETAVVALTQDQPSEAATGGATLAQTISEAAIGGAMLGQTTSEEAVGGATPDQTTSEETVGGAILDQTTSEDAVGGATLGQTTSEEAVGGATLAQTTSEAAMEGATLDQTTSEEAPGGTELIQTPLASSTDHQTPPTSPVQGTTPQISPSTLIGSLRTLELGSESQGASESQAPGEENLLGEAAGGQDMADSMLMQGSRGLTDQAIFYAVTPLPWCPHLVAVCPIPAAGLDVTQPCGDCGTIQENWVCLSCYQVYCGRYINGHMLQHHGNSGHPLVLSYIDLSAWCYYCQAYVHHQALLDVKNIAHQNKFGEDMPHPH

Histone deacetylase 1 = Histone deacetylase 1 (Homo sapiens, UniProt Q13547); assay: Induction of HDAC1 degradation in human RS4-11 cells at 0.5 to 10 uM incubated for 12 hrs by Western blotting analysis; type: cell-based; settings: dose 0.5-10 µM
HeLa = assay: Antiproliferative activity against human HeLa cells assessed as cell growth inhibition at 5 uM incubated for 48 hrs by CCK-8 assay; type: functional, cell-based

Measured: Activity

Sequence of Histone deacetylase 1 (Q13547 whole entry): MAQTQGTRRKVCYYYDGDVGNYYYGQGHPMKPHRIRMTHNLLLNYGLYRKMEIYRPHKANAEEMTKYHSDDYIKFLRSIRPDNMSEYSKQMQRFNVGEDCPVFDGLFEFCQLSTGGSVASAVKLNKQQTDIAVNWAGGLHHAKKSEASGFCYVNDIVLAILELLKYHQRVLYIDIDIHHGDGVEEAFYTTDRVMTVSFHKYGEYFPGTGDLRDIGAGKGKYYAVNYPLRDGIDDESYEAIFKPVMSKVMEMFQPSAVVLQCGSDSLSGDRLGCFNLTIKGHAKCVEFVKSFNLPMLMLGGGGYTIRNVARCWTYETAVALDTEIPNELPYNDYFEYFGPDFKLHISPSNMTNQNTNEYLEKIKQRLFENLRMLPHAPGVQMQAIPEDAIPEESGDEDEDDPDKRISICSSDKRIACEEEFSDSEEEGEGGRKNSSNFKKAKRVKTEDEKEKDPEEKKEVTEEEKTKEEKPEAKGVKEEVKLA

O=C1CCC(N2C(=O)c3cccc(NCCOCCOCCOCCn4cc(C(=O)NCCS)nn4)c3C2=O)C(=O)N1 (stereo not given)
inactive: all assays above

Nc1ccccc1NC(=O)CCCCCCNc1cccc2c1C(=O)N(C1CCC(=O)NC1=O)C2=O (stereo not given)
inactive: all assays above

O=C(CCCCCCNc1cccc2c1C(=O)N(C1CCC(=O)NC1=O)C2=O)NCCS (stereo not given)
inactive: all assays above

O=C(CCCCCNc1cccc2c1C(=O)N(C1CCC(=O)NC1=O)C2=O)NO (stereo not given)
inactive: all assays above

O=C(CCCCNc1cccc2c1C(=O)N(C1CCC(=O)NC1=O)C2=O)NO (stereo not given)
inactive: all assays above

O=C1CCC(N2C(=O)c3cccc(NCCOCCOCCn4cc(C(=O)NCCS)nn4)c3C2=O)C(=O)N1 (stereo not given)
inactive: all assays above

Nc1cc(F)ccc1NC(=O)c1cn(CCOCCNc2cccc3c2C(=O)N(C2CCC(=O)NC2=O)C3=O)nn1 (stereo not given)
inactive: all assays above

O=C1CCC(N2C(=O)c3cccc(NCCOCCn4cc(C(=O)NO)nn4)c3C2=O)C(=O)N1 (stereo not given)
inactive: all assays above

CCCNNC(=O)c1ccc(CNc2cccc3c2C(=O)N(C2CCC(=O)NC2=O)C3=O)cc1 (stereo not given)
inactive: all assays above

Nc1ccccc1NC(=O)c1cn(CCOCCOCCNc2cccc3c2C(=O)N(C2CCC(=O)NC2=O)C3=O)nn1 (stereo not given)
inactive: all assays above

O=C1CCC(N2C(=O)c3cccc(NCCOCCOCCn4cc(C(=O)NO)nn4)c3C2=O)C(=O)N1 (stereo not given)
inactive: all assays above

O=C(CCCCCNc1cccc2c1C(=O)N(C1CCC(=O)NC1=O)C2=O)NCCS (stereo not given)
inactive: all assays above

Nc1cc(F)ccc1NC(=O)CCCCCCNc1cccc2c1C(=O)N(C1CCC(=O)NC1=O)C2=O (stereo not given)
inactive: all assays above

O=C1CCC(N2C(=O)c3cccc(NCc4ccc(C(=O)NCCS)cc4)c3C2=O)C(=O)N1 (stereo not given)
inactive: all assays above

Nc1cccc2c1C(=O)N(C1CCC(=O)NC1=O)C2=O (stereo not given)
inactive: all assays above

Nc1cc(F)ccc1NC(=O)CCCCCNc1cccc2c1C(=O)N(C1CCC(=O)NC1=O)C2=O (stereo not given)
inactive: all assays above

Nc1ccccc1NC(=O)CCCCCCCNc1cccc2c1C(=O)N(C1CCC(=O)NC1=O)C2=O (stereo not given)
inactive: all assays above

Nc1cc(F)ccc1NC(=O)c1cn(CCOCCOCCOCCNc2cccc3c2C(=O)N(C2CCC(=O)NC2=O)C3=O)nn1 (stereo not given)
inactive: all assays above

CCNNC(=O)c1ccc(CNc2cccc3c2C(=O)N(C2CCC(=O)NC2=O)C3=O)cc1 (stereo not given)
inactive: all assays above

CCNNC(=O)CCCCCCNc1cccc2c1C(=O)N(C1CCC(=O)NC1=O)C2=O (stereo not given)
inactive: all assays above

O=C(CCCCCCCNc1cccc2c1C(=O)N(C1CCC(=O)NC1=O)C2=O)NCCS (stereo not given)
inactive: all assays above

Nc1ccccc1NC(=O)CCCCCNc1cccc2c1C(=O)N(C1CCC(=O)NC1=O)C2=O (stereo not given)
inactive: all assays above

CCCNNC(=O)CCCCCCNc1cccc2c1C(=O)N(C1CCC(=O)NC1=O)C2=O (stereo not given)
inactive: all assays above

Nc1cc(F)ccc1NC(=O)c1cn(CCOCCOCCNc2cccc3c2C(=O)N(C2CCC(=O)NC2=O)C3=O)nn1 (stereo not given)
inactive: all assays above

Nc1ccccc1NC(=O)CCCCNc1cccc2c1C(=O)N(C1CCC(=O)NC1=O)C2=O (stereo not given)
inactive: all assays above
